Results from patent US6416642B1, “Method and apparatus for continuous liquid flow in microscale channels using pressure injection, wicking, and electrokinetic injection” (Caliper Technologies Corp., priority 1999, dated 2002).

Tested on: purinergic, P2Y receptor
Assay: Calcium flux assay in continuous-flow microfluidic device (Fluo-3 fluorescence)
Assay type: cell-based
Conditions: THP-1 cells loaded with Fluo-3; UTP 0-3 μM; FIG. 13 upper trace
Experimental: Using a continuous flow format in planar chips using a wick to generate constant pressure driven flow, cells were mixed with an agonist and down-stream fluorescence detectors were used to monitor indicator cells using Fluo-3 (Molecular Probes Inc.) calcium sensitive fluorescent dye as a probe for receptor activation of calcium fluxes. THP-1 cells were loaded with Fluo-3 by incubation with a 4 μM concentration of the Fluo-3 AM (acetoxymethyl ester) in Hank's Balanced Salt Solution(HBSS) containing 20 mM HEPES, pH 7.0, and 1 mg/ml bovine serum albumin. After a 40 minute incubation at 37° C., Syto-6, a fluorescent DNA stain, was added to 2.5 μM, and the cells were incubated for an additional 10 minutes at room temperature. The cells were then washed free of excess dye by pelleting at 300×g for 5 minutes and resuspending and repelleting. The cells were resuspended in Cell Buffer (HBSS containing 20 mM HEPES, pH 7.0, 1 mg/ml BSA and 10% Optiprep). […]
By taking the ratio of the two fluorescent dyes, it is possible to normalize the calcium flux response in the THP-1 cells since the DNA staining intensity is a constant in diploid, resting cells, and thereby quantitate the increase in calcium concentration.

## O=c1ccn([C@@H]2O[C@H](COP(=O)(O)OP(=O)(O)OP(=O)(O)O)[C@@H](O)[C@H]2O)c(=O)[nH]1 [UTP]
  fluorescence of the calcium sensitive dye (intracellular free calcium): increases with UTP treatment in a dose dependent manner
